Source: patent publication US20150010928A1, “MEANS AND METHODS FOR ASSESSING AN ENDOCRINE DISEASE OR DISORDER” (priority 2012, published 2015)
Marks after values point to notes of the source that are not given here.

Test system: female rats
Assay: Plasma metabolite profiling (GC-MS, LC-MS, SPE-LC-MS) in female rats dosed once daily over 28 days (OECD 407)
Type: in vivo, rat
Design: key to TAG No 07 / Lysophosphatidylcholine (C17:0): ratio of treated group mean to untreated control group mean; key to 5-O-Methylsphingosine (d18:1) / Isopalmitic acid (C16:0) / Valine / Alanine / Ketoleucine / Serine / Lactate / Arginine: ratio of treated group mean to untreated control mean
Details: high dose; for Isopalmitic acid (C16:0): Table 17a; for Alanine / Arginine / Ketoleucine / Lactate / Proline / Serine / Valine: Table 17b; for 3-O-Methylsphingosine (d18:1) / 5-O-Methylsphingosine (d18:1) / 16-Methylheptadecanoic acid / Arachidonic acid (C20:cis[5,8,11,14]4) / Ceramide (d18:1, C24:1) / Ceramide (d18:1,C24:0) / Cholesterol / Cholesterolester No 01 / Dodecanol / Elaidic acid (C18:trans[9]1) / Galactose, lipid fraction / Glycerol phosphate, lipid fraction / Heptadecanoic acid (C17:0) / Lignoceric acid (C24:0) / Lysophosphatidylcholine (C17:0) / Phosphate, lipid fraction / Phosphatidylcholine (C18:0, C20:3) / Phytosphingosine / Sphingomyelin (d18:1, C16:0) / Sphingomyelin (d18:1,C24:0) / Sphingomyelin (d18:2, C16:0) / Sphingomyelin (d18:2,C18:0) / Stearic acid (C18:0) / TAG No 07 / Tricosanoic acid (C23:0) / alpha-Tocopherol / beta-Sitosterol / erythro-Sphingosine (d18:1) / myo-Inositol, lipid fraction / myo-Inositol-2-phosphate, lipid fraction / threo-Sphingosine (d18:1): Table 13b
Protocol: Each dose group in the studies consisted of five rats per sex. Additional groups of each 5 male and female animals served as controls. […] All animals of the animal population were kept under the same constant temperature (20-24±3° C.) and the same constant humidity (30-70%). The animals of the animal population were fed ad libitum. The food to be used was essentially free of chemical or microbial contaminants. Drinking water was also offered ad libitum. Accordingly, the water was free of chemical and microbial contaminants as laid down in the European Drinking Water Directive 98/83/EG. The illumination period was 12 hours light followed by 12 hours darkness (12 hours light, from 6:00 to 18:00, and 12 hours darkness, from 18:00 to 6:00). […] The test substances (compounds) in the Tables 1 to 17 below were dosed and administered as described in the Table 18.
In the morning of day 7, 14, and 28, blood was taken from the retroorbital venous plexus from fasted anaesthetized animals. From each animal, 1 ml of blood was collected with EDTA as anticoagulant. The samples were centrifuged for generation of plasma. All plasma samples were covered with a N2 atmosphere and then stored at −80° C. until analysis.
For mass spectrometry-based metabolite profiling analyses plasma samples were extracted and a polar and a non-polar (lipid) fraction was obtained. For GC-MS analysis, the non-polar fraction was treated with methanol under acidic conditions to yield the fatty acid methyl esters. Both fractions were further derivatised with O-methyl-hydroxyamine hydrochloride and pyridine to convert Oxogroups to O-methyloximes and subsequently with a silylating agent before analysis. In LC-MS analysis, both fractions were reconstituted in appropriate solvent mixtures. HPLC was performed by gradient elution on reversed phase separation columns. Mass spectrometric detection which allows target and high sensitivity MRM (Multiple Reaction Monitoring) profiling in parallel to a full screen analysis was applied as described in WO2003073464.
Steroids and their metabolites were measured by online SPE-LC-MS (Solid phase extraction-LC-MS).
Following comprehensive analytical validation steps, the data for each analyte were normalized against data from pool samples. These samples were run in parallel through the whole process to account for process variability. The significance of treatment group values specific for sex, treatmentduration and metabolite was determined by comparing means of the treated groups to the means of the respective untreated control groups using WELCH-test and quantified with treatment ratios versus control and p-values.
The identification of the most important biomarkers per toxicity pattern was done by a ranking of the analytes in the tables below. Therefore the metabolic changes in reference treatments of a given pattern (shown in the table) were compared with changes of the same metabolite in other unrelated treatments. […] The maximum absolute value of the respective TVALUE was taken to indicate the most important metabolite for the pattern.

CN(N=O)C(=O)N[C@H]1C(O)O[C@H](CO)[C@@H](O)[C@@H]1O (mixture of isomers) [Streptozotocin]
Isopalmitic acid (C16:0) (f7, female rats): 0.99 | Alanine (f7, female rats): 0.79 | Arginine (f7, female rats): 0.78 | Ketoleucine (f7, female rats): 0.85 | Lactate (f7, female rats): 0.77 | Proline (f7, female rats): 0.81 | Serine (f7, female rats): 0.88 | Valine (f7, female rats): 0.77 | Isopalmitic acid (C16:0) (f14, female rats): 1.12 * | Alanine (f14, female rats): 0.91 | Arginine (f14, female rats): 0.88 | Ketoleucine (f14, female rats): 0.9 | Lactate (f14, female rats): 0.83 | Proline (f14, female rats): 0.83 | Serine (f14, female rats): 0.83 | Valine (f14, female rats): 0.85 | Isopalmitic acid (C16:0) (f28, female rats): 1.3 * | Alanine (f28, female rats): 0.87 | Arginine (f28, female rats): 1.03 | Ketoleucine (f28, female rats): 0.87 | Lactate (f28, female rats): 0.57 | Proline (f28, female rats): 0.9 | Serine (f28, female rats): 0.98 | Valine (f28, female rats): 0.98

C=CCN1C[C@H](C(=O)N(CCCN(C)C)C(=O)NCC)C[C@@H]2c3cccc4[nH]cc(c34)C[C@H]21 [Cabergoline]
3-O-Methylsphingosine (d18:1) (f7): 0.68 * | 5-O-Methylsphingosine (d18:1) (f7): 0.66 * | 16-Methylheptadecanoic acid (f7): 0.57 * | Arachidonic acid (C20:cis[5,8,11,14]4) (f7): 0.71 * | Ceramide (d18:1, C24:1) (f7): 0.57 * | Ceramide (d18:1,C24:0) (f7): 0.53 * | Cholesterol (f7): 0.72 * | Cholesterolester No 01 (f7): 0.84^ | Dodecanol (f7): 0.84 * | Elaidic acid (C18:trans[9]1) (f7): 0.66 * | Galactose, lipid fraction (f7): 0.79^ | Glycerol phosphate, lipid fraction (f7): 0.72 * | Heptadecanoic acid (C17:0) (f7): 0.85^ | Lignoceric acid (C24:0) (f7): 0.54 * | Lysophosphatidylcholine (C17:0) (f7): 0.83 * | Phosphate, lipid fraction (f7): 0.73 * | Phosphatidylcholine (C18:0, C20:3) (f7): 0.85 * | Phytosphingosine (f7): 0.64 * | Sphingomyelin (d18:1, C16:0) (f7): 0.94^ | Sphingomyelin (d18:1,C24:0) (f7): 0.84 * | Sphingomyelin (d18:2, C16:0) (f7): 0.67 * | Sphingomyelin (d18:2,C18:0) (f7): 0.89 * | Stearic acid (C18:0) (f7): 0.79 * | TAG No 07 (f7): 0.91^ | Tricosanoic acid (C23:0) (f7): 0.71 * | alpha-Tocopherol (f7): 0.82^ | beta-Sitosterol (f7): 0.46 * | erythro-Sphingosine (d18:1) (f7): 0.66 * | myo-Inositol, lipid fraction (f7): 0.87 * | myo-Inositol-2-phosphate, lipid fraction (f7): 0.61 * | threo-Sphingosine (d18:1) (f7): 0.75 * | 3-O-Methylsphingosine (d18:1) (f14): 0.36 * | 5-O-Methylsphingosine (d18:1) (f14): 0.34 * | 16-Methylheptadecanoic acid (f14): 0.59 * | Arachidonic acid (C20:cis[5,8,11,14]4) (f14): 0.32 * | Ceramide (d18:1, C24:1) (f14): 0.6 * | Ceramide (d18:1,C24:0) (f14): 0.57 * | Cholesterol (f14): 0.36 * | Cholesterolester No 01 (f14): 0.79 * | Dodecanol (f14): 0.44 * | Elaidic acid (C18:trans[9]1) (f14): 0.5 * | Galactose, lipid fraction (f14): 0.48 * | Glycerol phosphate, lipid fraction (f14): 0.34 * | Heptadecanoic acid (C17:0) (f14): 0.61 * | Lignoceric acid (C24:0) (f14): 0.33 * | Lysophosphatidylcholine (C17:0) (f14): 0.72 * | Phosphate, lipid fraction (f14): 0.57 * | Phosphatidylcholine (C18:0, C20:3) (f14): 0.72 * | Phytosphingosine (f14): 0.55 * | Sphingomyelin (d18:1, C16:0) (f14): 0.79 * | Sphingomyelin (d18:1,C24:0) (f14): 0.62 * | Sphingomyelin (d18:2, C16:0) (f14): 0.58 * | Sphingomyelin (d18:2,C18:0) (f14): 0.67 * | Stearic acid (C18:0) (f14): 0.42 * | TAG No 07 (f14): 0.73 * | Tricosanoic acid (C23:0) (f14): 0.55 * | alpha-Tocopherol (f14): 0.4 * | beta-Sitosterol (f14): 0.3 * | erythro-Sphingosine (d18:1) (f14): 0.37 * | myo-Inositol, lipid fraction (f14): 0.48 * | myo-Inositol-2-phosphate, lipid fraction (f14): 0.31 * | threo-Sphingosine (d18:1) (f14): 0.44 * | 3-O-Methylsphingosine (d18:1) (f28): 0.11 * | 5-O-Methylsphingosine (d18:1) (f28): 0.13 * | 16-Methylheptadecanoic acid (f28): 0.28 * | Arachidonic acid (C20:cis[5,8,11,14]4) (f28): 0.16 * | Ceramide (d18:1, C24:1) (f28): 0.39 * | Ceramide (d18:1,C24:0) (f28): 0.36 * | Cholesterol (f28): 0.16 * | Cholesterolester No 01 (f28): 0.56 * | Dodecanol (f28): 0.27 * | Elaidic acid (C18:trans[9]1) (f28): 0.33 * | Galactose, lipid fraction (f28): 0.24 * | Glycerol phosphate, lipid fraction (f28): 0.19 * | Heptadecanoic acid (C17:0) (f28): 0.47 * | Lignoceric acid (C24:0) (f28): 0.15 * | Lysophosphatidylcholine (C17:0) (f28): 0.57 * | Phosphate, lipid fraction (f28): 0.36 * | Phosphatidylcholine (C18:0, C20:3) (f28): 0.59 * | Phytosphingosine (f28): 0.34 * | Sphingomyelin (d18:1, C16:0) (f28): 0.51 * | Sphingomyelin (d18:1,C24:0) (f28): 0.36 * | Sphingomyelin (d18:2, C16:0) (f28): 0.33 * | Sphingomyelin (d18:2,C18:0) (f28): 0.3 * | Stearic acid (C18:0) (f28): 0.28 * | TAG No 07 (f28): 0.4 * | Tricosanoic acid (C23:0) (f28): 0.23 * | alpha-Tocopherol (f28): 0.16 * | beta-Sitosterol (f28): 0.13 * | erythro-Sphingosine (d18:1) (f28): 0.13 * | myo-Inositol, lipid fraction (f28): 0.23 * | myo-Inositol-2-phosphate, lipid fraction (f28): 0.08 * | threo-Sphingosine (d18:1) (f28): 0.24 *

CCOC(=O)C(C)(C)Oc1ccc(Cl)cc1 [Clofibrate]
Isopalmitic acid (C16:0) (f7, female rats): 0.83 * | Alanine (f7, female rats): 0.63 | Arginine (f7, female rats): 0.74 | Ketoleucine (f7, female rats): 1.04 | Lactate (f7, female rats): 1.22 | Proline (f7, female rats): 0.81 | Serine (f7, female rats): 0.85 | Valine (f7, female rats): 0.91 | Isopalmitic acid (C16:0) (f14, female rats): 0.84 | Alanine (f14, female rats): 0.72 | Arginine (f14, female rats): 0.93 | Ketoleucine (f14, female rats): 0.94 | Lactate (f14, female rats): 0.66 | Proline (f14, female rats): 0.88 | Serine (f14, female rats): 0.98 | Valine (f14, female rats): 0.94 | Isopalmitic acid (C16:0) (f28, female rats): 1.53 * | Alanine (f28, female rats): 0.84 | Arginine (f28, female rats): 0.92 | Ketoleucine (f28, female rats): 0.88 | Lactate (f28, female rats): 0.83 | Proline (f28, female rats): 0.85 | Serine (f28, female rats): 1.03 | Valine (f28, female rats): 1.14
